According to patent publication US20240246942A1, “KINASE INHIBITORS FOR THE TREATMENT OF NEURODEGENERATIVE DISEASES” (priority 2020, published 2024):

What was measured:
Experiment in all cases: biochemical
[1] = biological target: T1, panel of 374 wild-type kinases (Homo sapiens, UniProt P52564); settings: read-out: % Enzyme Activity (relative to DMSO controls), MKK6
T1 construct: purchased Reaction Biology Corporation
T1 sequence (P52564 1-334): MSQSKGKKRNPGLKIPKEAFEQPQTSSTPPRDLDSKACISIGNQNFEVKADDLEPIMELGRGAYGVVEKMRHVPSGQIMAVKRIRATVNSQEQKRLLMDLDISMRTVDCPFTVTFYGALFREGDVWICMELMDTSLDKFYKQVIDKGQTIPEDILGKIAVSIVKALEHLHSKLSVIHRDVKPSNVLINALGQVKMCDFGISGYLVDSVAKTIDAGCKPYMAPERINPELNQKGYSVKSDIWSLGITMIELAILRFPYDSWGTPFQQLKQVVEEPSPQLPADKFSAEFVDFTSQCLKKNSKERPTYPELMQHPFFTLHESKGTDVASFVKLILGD

[2] = biological target: T2, panel of 374 wild-type kinases (Homo sapiens, UniProt P16234); settings: read-out: % Enzyme Activity (relative to DMSO controls), kinase PDGFRa
T2 construct: purchased Reaction Biology Corporation
T2 sequence (P16234 24-1089): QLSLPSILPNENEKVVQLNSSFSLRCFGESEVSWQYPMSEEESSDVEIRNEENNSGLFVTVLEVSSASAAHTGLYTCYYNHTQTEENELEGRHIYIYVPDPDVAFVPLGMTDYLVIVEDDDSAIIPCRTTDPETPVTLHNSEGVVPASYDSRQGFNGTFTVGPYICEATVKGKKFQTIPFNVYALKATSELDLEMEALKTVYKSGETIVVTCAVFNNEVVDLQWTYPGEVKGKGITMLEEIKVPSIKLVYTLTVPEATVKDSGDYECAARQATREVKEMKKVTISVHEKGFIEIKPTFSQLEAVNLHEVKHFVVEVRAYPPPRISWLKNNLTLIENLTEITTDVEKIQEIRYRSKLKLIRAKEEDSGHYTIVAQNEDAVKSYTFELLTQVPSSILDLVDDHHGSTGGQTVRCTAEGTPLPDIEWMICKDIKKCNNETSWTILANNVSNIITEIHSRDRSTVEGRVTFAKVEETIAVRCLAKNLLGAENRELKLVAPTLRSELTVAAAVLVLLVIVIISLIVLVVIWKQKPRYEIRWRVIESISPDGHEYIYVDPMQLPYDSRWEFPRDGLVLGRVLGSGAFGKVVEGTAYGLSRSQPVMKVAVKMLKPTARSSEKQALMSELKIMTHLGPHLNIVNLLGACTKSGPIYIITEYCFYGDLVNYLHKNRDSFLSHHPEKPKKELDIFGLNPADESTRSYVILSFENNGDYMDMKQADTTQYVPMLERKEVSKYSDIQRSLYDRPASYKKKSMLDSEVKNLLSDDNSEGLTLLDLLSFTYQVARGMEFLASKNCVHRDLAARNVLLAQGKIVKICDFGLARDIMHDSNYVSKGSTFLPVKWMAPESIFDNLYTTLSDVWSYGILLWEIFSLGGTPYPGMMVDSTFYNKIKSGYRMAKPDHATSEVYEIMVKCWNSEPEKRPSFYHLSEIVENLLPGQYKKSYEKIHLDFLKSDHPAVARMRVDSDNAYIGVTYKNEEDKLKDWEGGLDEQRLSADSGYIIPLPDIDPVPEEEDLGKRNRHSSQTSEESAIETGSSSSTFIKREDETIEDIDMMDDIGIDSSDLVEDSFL

[3] = biological target: T3, panel of 374 wild-type kinases (Homo sapiens, UniProt Q9UF33); settings: EPHA6, read-out: % Enzyme Activity (relative to DMSO controls)
T3 construct: purchased Reaction Biology Corporation
T3 sequence (Q9UF33 23-1036): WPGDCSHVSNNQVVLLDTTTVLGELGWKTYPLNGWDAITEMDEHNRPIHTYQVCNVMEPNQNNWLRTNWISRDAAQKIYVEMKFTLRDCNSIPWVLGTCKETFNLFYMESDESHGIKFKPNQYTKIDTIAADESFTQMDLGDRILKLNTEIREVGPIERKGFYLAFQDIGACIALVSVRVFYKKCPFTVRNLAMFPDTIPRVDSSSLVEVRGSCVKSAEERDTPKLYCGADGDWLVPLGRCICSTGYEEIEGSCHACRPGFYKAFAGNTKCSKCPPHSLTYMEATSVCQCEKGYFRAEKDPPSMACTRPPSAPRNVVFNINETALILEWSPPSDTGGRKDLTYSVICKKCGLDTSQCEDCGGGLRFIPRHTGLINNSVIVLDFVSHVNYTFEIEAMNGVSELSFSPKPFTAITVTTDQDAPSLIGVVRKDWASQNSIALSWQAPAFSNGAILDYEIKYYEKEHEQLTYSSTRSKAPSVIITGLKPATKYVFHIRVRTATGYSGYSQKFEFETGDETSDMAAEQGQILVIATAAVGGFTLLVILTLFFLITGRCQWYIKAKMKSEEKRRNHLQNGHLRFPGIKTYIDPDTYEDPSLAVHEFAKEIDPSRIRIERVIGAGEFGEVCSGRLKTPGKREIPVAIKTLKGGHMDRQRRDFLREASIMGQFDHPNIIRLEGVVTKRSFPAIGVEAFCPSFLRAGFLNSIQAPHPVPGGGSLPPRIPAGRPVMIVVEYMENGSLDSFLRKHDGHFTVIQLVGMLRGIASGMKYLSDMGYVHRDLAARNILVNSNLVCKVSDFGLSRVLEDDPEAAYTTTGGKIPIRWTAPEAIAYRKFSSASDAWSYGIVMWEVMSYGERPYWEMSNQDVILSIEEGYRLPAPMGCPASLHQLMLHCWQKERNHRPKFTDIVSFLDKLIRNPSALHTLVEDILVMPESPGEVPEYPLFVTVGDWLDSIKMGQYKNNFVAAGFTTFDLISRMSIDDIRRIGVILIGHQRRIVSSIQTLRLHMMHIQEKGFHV

[4] = biological target: T4, panel of 374 wild-type kinases (Homo sapiens, UniProt P37023); settings: read-out: % Enzyme Activity (relative to DMSO controls), ALK1/ACVRL1
T4 construct: purchased Reaction Biology Corporation
T4 sequence (P37023 22-503): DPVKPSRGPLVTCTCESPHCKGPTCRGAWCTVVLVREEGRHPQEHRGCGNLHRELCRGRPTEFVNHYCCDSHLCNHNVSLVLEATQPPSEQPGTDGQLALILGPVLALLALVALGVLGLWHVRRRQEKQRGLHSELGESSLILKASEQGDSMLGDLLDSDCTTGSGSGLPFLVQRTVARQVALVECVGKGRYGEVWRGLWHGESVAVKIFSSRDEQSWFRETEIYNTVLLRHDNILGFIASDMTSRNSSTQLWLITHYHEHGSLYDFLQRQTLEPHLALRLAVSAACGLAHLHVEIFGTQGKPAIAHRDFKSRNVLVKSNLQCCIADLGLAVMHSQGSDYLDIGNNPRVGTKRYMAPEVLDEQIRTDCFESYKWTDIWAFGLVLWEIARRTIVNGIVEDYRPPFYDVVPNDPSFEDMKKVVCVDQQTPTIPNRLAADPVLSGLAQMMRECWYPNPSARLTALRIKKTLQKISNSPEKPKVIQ

[5] = biological target: T5, panel of 374 wild-type kinases (Homo sapiens, UniProt O14733); settings: read-out: % Enzyme Activity (relative to DMSO controls), MKK7
T5 construct: purchased Reaction Biology Corporation
T5 sequence (O14733 1-419): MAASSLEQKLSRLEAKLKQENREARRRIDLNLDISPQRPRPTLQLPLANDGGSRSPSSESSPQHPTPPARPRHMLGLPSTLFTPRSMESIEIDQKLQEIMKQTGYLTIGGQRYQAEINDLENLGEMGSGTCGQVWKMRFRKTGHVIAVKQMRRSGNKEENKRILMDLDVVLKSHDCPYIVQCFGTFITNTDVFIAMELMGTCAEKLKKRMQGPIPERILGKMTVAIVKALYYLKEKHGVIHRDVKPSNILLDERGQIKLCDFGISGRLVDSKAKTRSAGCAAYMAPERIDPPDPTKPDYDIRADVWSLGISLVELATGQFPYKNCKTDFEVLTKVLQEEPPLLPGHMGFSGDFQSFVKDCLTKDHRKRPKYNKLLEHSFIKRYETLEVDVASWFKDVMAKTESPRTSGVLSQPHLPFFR

[6] = biological target: T6, panel of 374 wild-type kinases (Homo sapiens, UniProt Q13043); settings: read-out: % Enzyme Activity (relative to DMSO controls), MST1/STK4
T6 construct: purchased Reaction Biology Corporation
T6 sequence (Q13043 1-487): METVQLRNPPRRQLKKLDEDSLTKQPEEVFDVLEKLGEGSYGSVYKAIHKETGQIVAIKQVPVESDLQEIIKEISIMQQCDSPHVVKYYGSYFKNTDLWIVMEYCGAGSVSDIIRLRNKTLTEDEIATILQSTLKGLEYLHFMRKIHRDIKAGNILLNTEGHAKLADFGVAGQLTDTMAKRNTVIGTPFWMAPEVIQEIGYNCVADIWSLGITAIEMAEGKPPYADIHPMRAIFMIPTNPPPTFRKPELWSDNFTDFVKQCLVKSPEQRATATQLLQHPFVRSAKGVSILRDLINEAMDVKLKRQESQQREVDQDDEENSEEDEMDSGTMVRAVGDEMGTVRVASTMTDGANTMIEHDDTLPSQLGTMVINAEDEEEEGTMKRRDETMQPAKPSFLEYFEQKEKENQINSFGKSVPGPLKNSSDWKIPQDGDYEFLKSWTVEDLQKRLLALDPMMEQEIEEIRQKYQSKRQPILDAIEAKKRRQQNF

| SMILES | remaining activity at 5 µM [1] [%] | remaining activity at 5 µM [2] [%] | remaining activity at 5 µM [3] [%] | remaining activity at 5 µM [4] [%] | remaining activity at 5 µM [5] [%] | remaining activity at 5 µM [6] [%] | remaining activity at 10 µM ([1]; 10 uM) [%] | remaining activity at 10 µM ([2]; 10 uM) [%] | remaining activity at 10 µM ([3]; 10 uM) [%] | remaining activity at 10 µM ([4]; 10 uM) [%] | remaining activity at 10 µM ([5]; 10 uM) [%] | remaining activity at 10 µM ([6]; 10 uM) [%] |
| --- | --- | --- | --- | --- | --- | --- | --- | --- | --- | --- | --- | --- |
| O=C(Nc1cnn(-c2csc(C(=O)NC3COC3)c2)c1)Nc1ccccc1Cl [Compound 17, 4-(4-(3-(2-chlorophenyl)ureido)-1H-pyrazol-1-yl)-N-(oxetan-3-yl)thiophene-2-carboxamide] | 96.4 | 95.2 | 99.5 | 107 | 112 | 99.3 |  |  |  |  |  |  |
| Cc1sc(C(=O)NC2COC2)cc1-n1cc(NC(=O)Nc2c(F)cccc2Cl)cn1 [Compound 27, 4-(4-(3-(2-chloro-6-fluorophenyl)ureido)-1H-pyrazol-1-yl)-5-methyl-N-(oxetan-3-yl)thiophene-2-carboxamide] |  |  |  |  |  |  | 86.4 | 114 | 80.2 | 78.7 | 120 | 107 |
| O=C(Nc1cnn(-c2csc(C(=O)NC3COC3)c2)c1)Nc1c(F)cccc1Cl [Compound 25, 4-(4-(3-(2-chloro-6-fluorophenyl)ureido)-1H-pyrazol-1-yl)-N-(oxetan-3-yl)thiophene-2-carboxamide] | 94.4 | 107 | 95.7 | 120 | 135 | 96.6 |  |  |  |  |  |  |
